According to PMC9571290, “Preliminary Structure–Activity Relationship Study of the MMV Pathogen Box Compound MMV675968 (2,4-Diaminoquinazoline) Unveils Novel Inhibitors of Trypanosoma brucei brucei” (Molecules, 2022):
Read-outs that look alike come from different tables or passages of the source.

Legend:
in vitro = conditions: African green monkey
Experimental: (§1) The resulting pellet was resuspended and counted in a Neubauer chamber in the presence of trypan blue to exclude nonviable cells colored in blue. Once the cell load was estimated, they were either used for the next passage in a new flask or processed for the cytotoxicity assay.
(§2) Briefly, Vero cells at a density of 10^4 cells per well were plated in 100 µL of complete DMEM and incubated overnight to allow cell attachment. Plates were then controlled under an inverted fluorescence microscope (Lumascope LS520) to ensure adherence, sterility and cell integrity. Thereafter, culture medium from each well was carefully emptied, and plates were filled with 90 µL of fresh complete medium followed by the addition of 10 µL of serial 5-fold dilutions of compound solutions. […] Fluorescence was then read using a Magelan Infinite M200 fluorescence multiwell plate reader (Tecan) with excitation and emission wavelengths of 530 and 590 nm, respectively. The percentage of cell viability was calculated from readouts, and the median cytotoxic concentration (CC50) for each compound was deduced from concentration–response curves using GraphPad Prism 8.0 software as described above. Selectivity indexes were then determined for each test substance as follows: SI = CC50(Vero cells)/IC50(T. brucei brucei).

[1] = tested on: bloodstream forms of Trypanosoma brucei brucei; assay: resazurin-based antitrypanosomal inhibition assay; format: cell-based; conditions: for pIC50 T. b. b.: Table 2
Experimental: Parasites were axenically cultivated in sterile vented flasks containing complete Hirumi’s modified Iscove’s medium 9 (HMI-9) [500 mL IMDM (Iscove’s modified Dulbecco’s medium) (Gibco, Waltham, MA, USA) supplemented with 10% (v/v) heat-inactivated fetal bovine serum (HIFBS) (Sigma Aldrich), 10% (v/v) serum plus (Sigma Aldrich), HMI-9 supplement (1 mM hypoxanthine, 0.16 mM thymidine, 50 µM bathocuproine disulfonic acid, 1.5 mM cysteine, 1.25 Mm pyruvic acid, 0.2 mM 2-mercaptoethanol (Sigma Aldrich)), and 1% (v/v) penicillin–streptomycin (Sigma Aldrich) and incubated at 37 °C in a 5% CO2 atmosphere.
The in vitro inhibitory potency of the 400 MMVPB compounds against bloodstream forms of Trypanosoma brucei brucei was evaluated using the resazurin-based inhibition assay as previously described. Briefly, parasites at their mid-logarithmic growth phase were counted, and the cell density was adjusted with fresh complete HMI-9 medium to 2 × 10^5 trypanosomes per mL. Then, 90 µL of parasite suspension was then distributed into the wells of 96-well flat-bottomed plates containing 10 µL of compounds for a final test concentration of 10 µM. […] Each assay plate was set up in duplicate and repeated two times. The percent parasite inhibition was determined for each compound based on fluorescence readouts relative to the mean fluorescence of negative control wells.
y = 100/[1+ 10^(logIC50/99-x)H], where H is the hill coefficient or slope factor [60].

Vero cells = assay: cytotoxicity against Vero cells (resazurin viability assay); conditions: read-out: CC50 Vero; Table 2
Experimental: as §1, §2

[2] = tested on: kinetoplastids (T. brucei brucei and T. brucei rhodesiense); parameters: method as in MMV Pathogen Box supporting information; conditions: against kinetoplastids; ref MMV Pathogen Box supporting information; read-out: Reported IC50; cited from earlier work
[3] = Trypanosoma brucei, Table 4, analogs of MMV675968, solid material, read-out: IC50 ± SD T. b. b.
[4] = Trypanosoma brucei, Table 1, reference drugs included in MMVPB, read-out: IC50 ± SD T. b. b.
[5] = Trypanosoma brucei, Table 1, negative log of IC50 in molar, read-out: pIC50 T. b. b. (converted)
[6] = Table 2, MMVPB compounds with known anti-kinetoplastid activity, read-out: IC50 ± SD T. b. b.

## COc1ccc(NCc2cnc(N)nc2N)cc1 [Analog 17]
In vitro
  CC50 at 48 h: > 100 µM
[1]; [3]
  IC50: > 10 µM

## COc1cccc(CNCc2cnc(N)nc2N)c1 [Analog 18]
In vitro
  CC50 at 48 h: > 100 µM
[1]; [3]
  IC50: > 10 µM

## COc1cccc(CNC(=O)c2cnc(N)nc2N)c1 [Analog 19]
In vitro
  CC50 at 48 h: > 100 µM
[1]; [3]
  IC50: > 10 µM

## COc1ccc(NC(=O)c2cnc(N)nc2N)cc1 [Analog 20]
In vitro
  CC50 at 48 h: > 100 µM
[1]; [3]
  IC50: > 10 µM

## COc1ccccc1NC(=O)c1cnc(N)nc1N [Analog 21]
In vitro
  CC50 at 48 h: > 100 µM
[1]; [3]
  IC50: > 10 µM

## Nc1ncc(C(=O)Nc2cccnc2)c(N)n1 [Analog 22]
In vitro
  CC50 at 48 h: > 100 µM
[1]; [3]
  IC50: > 10 µM

## Cc1ccccc1NC(=O)c1cnc(N)nc1N [Analog 23]
In vitro
  CC50 at 48 h: > 100 µM
[1]; [3]
  IC50: > 10 µM

## COc1ccc(NC(=O)c2cnc(N)nc2N)cc1OC [Analog 24]
In vitro
  CC50 at 48 h: > 100 µM
[1]; [3]
  IC50: > 10 µM

## OC(c1cc(C(F)(F)F)nc2c(C(F)(F)F)cccc12)C1CCCCN1 (stereo not drawn) [MMV000016, Mefloquine, reference compound]
In vitro
  CC50 at 48 h: 11.3 µM
[1]; [4]
  IC50: 1.6 ± 0.008 µM
[1]; [5]
  IC50: 1.58 µM

## CCN(CC)CCCCCCNc1cc(OC)cc2c(C)ccnc12 [MMV000063, Sitamaquine, reference compound]
In vitro
  CC50 at 48 h: > 100 µM
[1]; [4]
  IC50: 1.5 ± 0.03 µM
[1]; [5]
  IC50: 1.58 µM

## CC1CS(=O)(=O)CCN1/N=C/c1ccc([N+](=O)[O-])o1 (stereo not drawn) [MMV001499, Nifurtimox, reference compound]
In vitro
  CC50 at 48 h: > 100 µM
[1]; [4]
  IC50: 0.2 ± 0.09 µM
[1]; [5]
  IC50: 0.2 µM

## CNC(=O)C1Cc2ccccc2N1C(=O)Cc1ccc(F)cc1 (stereo not drawn) [MMV188296]
Vero cells
  CC50: > 100 µM
[2]
  IC50: 0.49 µM
[1]; [6]
  IC50: 1.01 ± 0.25 µM
[1]; negative log of IC50 in molar
  pIC50 T. b. b.: 5.99

## Cc1ccc(C(=O)Nc2ccc(S(=O)(=O)O)c3cc(S(=O)(=O)O)cc(S(=O)(=O)O)c23)cc1NC(=O)c1cccc(NC(=O)Nc2cccc(C(=O)Nc3cc(C(=O)Nc4ccc(S(=O)(=O)O)c5cc(S(=O)(=O)O)cc(S(=O)(=O)O)c45)ccc3C)c2)c1 [MMV637953, Suramine, reference compound]
In vitro
  CC50 at 48 h: > 100 µM
[1]; [4]
  IC50: 0.08 ± 0.01 µM
[1]; [5]
  IC50: 0.0813 µM

## O=C(Nc1ccc2c(c1)B(O)OC2)c1ccccc1C(F)(F)F [MMV652003]
Vero cells
  CC50: > 100 µM
[2]
  IC50: 0.15 µM
[1]; [6]
  IC50: 0.06 ± 0.04 µM
[1]; negative log of IC50 in molar
  pIC50 T. b. b.: 7.22

## Cc1nc(-c2ccccn2)nc(N2CCC(Cc3ccccc3)C2)c1Cl (stereo not drawn) [MMV659004]
Vero cells
  CC50: > 100 µM
[2]
  IC50: 6.6 µM
[1]; [6]
  IC50: 1.9 ± 0.003 µM
[1]; negative log of IC50 in molar
  pIC50 T. b. b.: 5.72

## COc1ccc(C(=N)N)cc1-c1cn(-c2ccc(C(=N)N)cc2)nn1 [MMV675998]
Vero cells
  CC50: > 100 µM
[2]
  IC50: 0.25 µM
[1]; [6]
  IC50: 0.34 ± 0.03 µM
[1]; negative log of IC50 in molar
  pIC50 T. b. b.: 6.47

## CO[C@@H](C(=O)N1Cc2[nH]nc(NC(=O)c3ccc(N4CCN(C)CC4)cc3)c2C1)c1ccccc1 [MMV676600]
Vero cells
  CC50: > 100 µM
[2]
  IC50: 1.02 µM
[1]; [6]
  IC50: 0.65 ± 0.007 µM
[1]; negative log of IC50 in molar
  pIC50 T. b. b.: 6.18

## Cc1ncc(-c2ccnc(Nc3ccc(S(C)(=O)=O)cc3)n2)n1C(C)C [MMV676604]
Vero cells
  CC50: 8.3 ± 1.2 µM
[2]
  IC50: 0.26 µM
[1]; [6]
  IC50: 0.036 ± 0.001 µM
[1]; negative log of IC50 in molar
  pIC50 T. b. b.: 7.44

## c1ccc(Oc2ccc(-c3cc(N4CCNCC4)[nH]n3)cc2)cc1 [MMV687706]
Vero cells
  CC50: 41 ± 6.5 µM
[2]
  IC50: 0.99 µM
[1]; [6]
  IC50: 1.9 ± 0.006 µM
[1]; negative log of IC50 in molar
  pIC50 T. b. b.: 5.72

## N=C(N)Nc1ccc(-c2ccc(-c3ccc(N=C(N)N)c(Cl)c3)o2)cc1Cl [MMV688271]
Vero cells
  CC50: > 100 µM
[2]
  IC50: 0.6 µM
[1]; [6]
  IC50: 1.07 ± 0.16 µM
[1]; negative log of IC50 in molar
  pIC50 T. b. b.: 5.97

## NCCN(C(=O)c1ccc(Cl)cc1Cl)c1ccc(OCc2ccc(Cl)cc2)cc1 [MMV688371]
Vero cells
  CC50: 7.5 ± 0.1 µM
[2]
  IC50: < 0.13 µM
[1]; [6]
  IC50: 1.6 ± 0.1 µM
[1]; negative log of IC50 in molar
  pIC50 T. b. b.: 5.79

## CC1=Nc2ccc(Cl)cc2C(c2ccccc2)N1CCNC(=O)CN(C)C (stereo not drawn) [MMV688410]
[2]
  IC50: 3.8 µM
[1]; [6]
  IC50: 8.5 ± 0.1 µM
[1]; negative log of IC50 in molar
  pIC50 T. b. b.: 5.07

## CCCCN(CCCC)c1c(C#N)cc(S(=O)(=O)Nc2ccccc2)cc1C#N [MMV688467]
Vero cells
  CC50: > 100 µM
[2]
  IC50: 0.3 µM
[1]; [6]
  IC50: 3.1 ± 0.5 µM
[1]; negative log of IC50 in molar
  pIC50 T. b. b.: 5.50

## N=C(N)c1ccc(-c2cc(-c3ccccc3)on2)cc1 [MMV688514]
Vero cells
  CC50: 17 ± 2.5 µM
[2]
  IC50: 4.06 µM
[1]; [6]
  IC50: 3.2 ± 0.3 µM
[1]; negative log of IC50 in molar
  pIC50 T. b. b.: 5.49

## O=C(Cn1ccnc1[N+](=O)[O-])NCc1ccccc1 [MMV688773, Benznidazole, reference compound]
In vitro
  CC50 at 48 h: > 100 µM
[1]; [4]
  IC50: 0.3 ± 0.01 µM
[1]; [5]
  IC50: 0.302 µM

## Cc1cccnc1NC(=O)c1cccc(OCc2c(C)noc2C)c1 [MMV688793]
Vero cells
  CC50: > 100 µM
[2]
  IC50: 2.07 µM
[1]; [6]
  IC50: 0.36 ± 0.04 µM
[1]; negative log of IC50 in molar
  pIC50 T. b. b.: 6.44

## O=C(NCCc1ccn(-c2ccccc2)n1)C1CCCCC1 [MMV688795]
Vero cells
  CC50: > 100 µM
[2]
  IC50: 0.15 µM
[1]; [6]
  IC50: 0.35 ± 0.02 µM
[1]; negative log of IC50 in molar
  pIC50 T. b. b.: 6.45

## O=C(NCc1nnc2n1CCCCC2)c1ccc(-c2ccc(F)cc2)o1 [MMV688796]
Vero cells
  CC50: > 100 µM
[2]
  IC50: 0.1 µM
[1]; [6]
  IC50: 0.03 ± 0.01 µM
[1]; negative log of IC50 in molar
  pIC50 T. b. b.: 7.52

## CC1CCCCN1C(=O)NCCc1coc(-c2ccc(F)cc2)n1 (stereo not drawn) [MMV688797]
Vero cells
  CC50: > 100 µM
[2]
  IC50: 0.13 µM
[1]; [6]
  IC50: 0.06 ± 0.02 µM
[1]; negative log of IC50 in molar
  pIC50 T. b. b.: 7.22

## CS(=O)(=O)c1ccccc1C(=O)N(Cc1ccccc1)c1ccccc1 [MMV688798]
[2]
  IC50: 0.555 µM
[1]; [6]
  IC50: 0.3 ± 0.025 µM
[1]; negative log of IC50 in molar
  pIC50 T. b. b.: 6.52

## Cc1ccc(S(=O)(=O)Nc2ccc(CN3CCN(C(=O)c4cccc(C#N)c4)CC3)cc2)cc1 [MMV689028]
Vero cells
  CC50: > 100 µM
[2]
  IC50: 0.14 µM

## COc1ccc(S(=O)(=O)Nc2ccc(CN3CCN(C(=O)c4cccc(C#N)c4)CC3)cc2)cc1 [MMV689029]
Vero cells
  CC50: > 100 µM
[2]
  IC50: 0.5 µM
[1]; [6]
  IC50: 1.3 ± 0.6 µM
[1]; negative log of IC50 in molar
  pIC50 T. b. b.: 5.88

## Clc1ccc(CN2CCN(C3=NCCN3)CC2)cc1Cl [MMV689060]
[2]
  IC50: 31.6 µM
[1]; [6]
  IC50: 2.4 ± 0.06 µM
[1]; negative log of IC50 in molar
  pIC50 T. b. b.: 5.61

## CC(=O)Nc1ccc(-c2noc(CC3CCCN(Cc4cccc(F)c4C)C3)n2)cc1 (stereo not drawn) [MMV689061]
Vero cells
  CC50: > 100 µM
[2]
  IC50: 32.3 µM
[1]; [6]
  IC50: 1.9 ± 0.1 µM
[1]; negative log of IC50 in molar
  pIC50 T. b. b.: 5.72

## COc1ccc(C2=NN(C3CCCCCC3)C(=O)[C@@H]3CC=CC[C@H]23)cc1OCCCCOc1ccc(-c2nn[nH]n2)cc1 [MMV690027]
Vero cells
  CC50: > 100 µM
[2]
  IC50: 0.02 µM
[1]; [6]
  IC50: 2.8 ± 0.07 µM
[1]; negative log of IC50 in molar
  pIC50 T. b. b.: 5.55
